According to PMC7005745 (Scientific Reports, 2020):
pIC50: −log10 of the molar value. Like-named read-outs stand apart in the source and are kept apart here.

Legend:
yopE expression (T3SS) = assay type: cell-based, Yersinia pseudotuberculosis; details: for pIC50: read-out: E-lux IC50
YopH secretion (T3SS) = assay type: cell-based, Yersinia pseudotuberculosis
[1] = tested on: Y. pseudotuberculosis serotype III strain YPIII(pIB102E-lux); assay type: cell-based, Yersinia pseudotuberculosis
[2] = tested on: ExoS expression (T3SS), PAK(pCS500); assay type: cell-based, Pseudomonas aeruginosa; details: read-out: IC50 ExoS-gfp
[3] = tested on: P. aeruginosa PAK(pCS500); assay type: cell-based, Pseudomonas aeruginosa
[4] = tested on: wild-type P. aeruginosa strain PAK infecting J774 cells
[5] = tested on: Y. pseudotuberculosis YPIII(pIB102; pFU95); assay type: cell-based, Yersinia pseudotuberculosis
[6] = tested on: secretion of Yop effector proteins (T3SS), YPIII(pIB102); assay type: cell-based, Yersinia pseudotuberculosis; details: 40 µM, Western blot
[7] = yopE expression, YPIII(pIB102E-lux), T3S-inducing conditions, compounds 1–100 µM
[8] = YopH secretion, YPIII(pIB102E-lux), T3S-inducing conditions, compounds 1–100 µM
[9] = Y. pseudotuberculosis, LB with 2.5 mM CaCl2, 37 °C, OD600 up to 24 h
[10] = combined yopE-lux and YopH phosphatase assay

Compound | pIC50 (yopE expression (T3SS); [7]) | pIC50 (YopH secretion (T3SS); [8]) | Growth inhibition [1, 9] | pIC50 [2] | Tocxicity P.a. [3] | Toxicity J774 (J774 cells) | Efficacy Pa J774 [4] | pIC50 (yopE expression (T3SS)) | pIC50 (YopH secretion (T3SS)) | Growth inhibition [1] | also measured
(±)-δ-Viniferin [compound 9] | 4.54 | 4.82 | No |  |  |  |  |  |  |  | 
Oc1ccc([C@H]2c3c(O)cc(O)cc3[C@H]3c4c(cc(O)cc4[C@@H]2O)O[C@@H]3c2ccc(O)cc2)cc1 (racemic) [compound 2, (±)-Ampelopsin A] | < 4.30 | < 4.30 | No | < 3.70 | No | No | No |  |  |  | Inhibition of the T3SS (in words) (yopE expression (T3SS); [10]): no or modest inhibition
C#CCOc1ccc(-c2oc3cc(O)cc(/C=C/c4ccc(O)cc4)c3c2-c2cc(O)cc(O)c2)cc1 [compound 13, Propagylated viniferifuran] |  |  |  |  |  |  |  | 5.22 | 5.52 |  | Binding to bacteria [5]: clear binding; Competition of binding by free viniferifuran [5]: binding could be outcompeted
Oc1ccc(/C=C/c2cc(O)cc3c2[C@@H](c2cc(O)cc(O)c2)[C@H](c2ccc(O)cc2)O3)cc1 (racemic) [compound 7, (±)-Cis-ε-viniferin (Omega-viniferin)] |  |  |  |  |  |  |  | < 4.30 | 4.32 | No | 
Oc1ccc([C@@H]2Cc3cc(O)cc4c3[C@H](c3cc(O)cc(O)c32)[C@@H](c2ccc(O)cc2)O4)cc1 (racemic) [compound 3, (±)-Ampelopsin B] |  |  |  | 3.87 | No | No | No | < 4.30 | 4.40 | No | Inhibition of the T3SS (in words) (yopE expression (T3SS)): no or modest inhibition
Oc1ccc(-c2oc3ccc(/C=C/c4cc(O)cc(O)c4)cc3c2-c2cc(O)cc(O)c2)cc1 [compound 10, Dehydro-δ-viniferin] | 5.30 | 5.40 |  | 5.10 | No | Tox |  |  |  |  | Inhibition of yopE expression (in words) (yopE expression (T3SS); 1–100 µM, Fig. 1a): dose-dependent inhibition; Inhibition of YopH secretion (in words) (YopH secretion (T3SS); 1–100 µM, Fig. 1b): dose-dependent inhibition
Oc1ccc(/C=C\c2cc(O)cc3oc(-c4ccc(O)cc4)c(-c4cc(O)cc(O)c4)c23)cc1 [compound 8, Viniferifuran] | 5.00 | 5.40 | without any effect on bacterial growth and No | 4.96 | No | Tox |  |  |  |  | Inhibition of yopE expression (in words) (yopE expression (T3SS); 1–100 µM, Fig. 1a): dose-dependent inhibition; Inhibition of the T3SS (in words) (yopE expression (T3SS); [10]): good inhibition; Inhibition of YopH secretion (in words) (YopH secretion (T3SS); 1–100 µM, Fig. 1b): dose-dependent inhibition; Reversibility of block of effector secretion (T3SS) after washing [6]: irreversibly block secretion of effector molecules; Reversibility of block of effector secretion (T3SS) after washing ([6]; listed as viniferifuran): irreversible
Oc1ccc(/C=C/c2cc(O)cc3c2[C@@H](c2cc(O)cc(O)c2)[C@H](c2ccc(O)cc2)O3)cc1 (racemic) [compound 6, (±)-ε-Viniferin] |  |  |  | 4.05 | No | No | No | < 4.30 | 4.52 | No | 
(±)-Dehydro-ampelopsin B [compound 4] |  |  |  | 4.48 | No | No | No | 4.40 | 4.70 | No | Inhibition of the T3SS (in words) (yopE expression (T3SS)): no or modest inhibition
Oc1ccc(/C=C/c2cc(O)cc3c2[C@@H](c2cc(O)cc(O)c2)[C@H](c2ccc(O)cc2)O3)cc1 [compound 5, (+)-ε-Viniferin] | < 4.30 | 4.82 | No |  |  |  | modest or no efficacy |  |  |  | 
(-)-Hopeaphenol [compound 1, reference compound] | 5.00 | 5.15 | No | 5.05 | No |  |  |  |  |  | Reversibility of block of effector secretion (T3SS) after washing [6]: irreversibly block secretion of effector molecules; Reversibility of block of effector secretion (T3SS) after washing ([6]; listed as (-)-hopeaphenol): irreversible; Inhibition of T3SS-mediated cytotoxicity ([4]; 50 µM): complete inhibition of cytotoxicity
Anigopreissin A [compound 11] |  |  |  | 4.82 | No | Some tox |  | 4.92 | 5.22 | detrimental effect on bacterial growth and Yes | Inhibition of yopE expression (in words) (yopE expression (T3SS)): dose-dependent inhibition; Inhibition of YopH secretion (in words) (YopH secretion (T3SS)): dose-dependent inhibition
